SMILES strings stand for the structures. Values after ≈ are worked out from the molar mass of the structure shown.

The test system of one test is KB. Briefly: Cytotoxicity against human KB cells. In kind it is functional, cell-based.
The nature of test [1]: Cytotoxicity against multidrug resistant human KBv200 cells expressing p-glycoprotein. In kind it is functional, cell-based.

`C=C[C@]1(C)C=C2C(=O)C(O)=C3C(C)(C)CCC[C@]3(C)[C@@]2(O)CC1`: the IC50 in the test with KB turned out to be 20.7 mg/L (≈ 65.5 µM); in test [1], 14.5 mg/L (≈ 45.7 µM).
In the same order, the values of `C=C[C@]1(C)C=C2[C@@H](O)C[C@H]3C(C)(C)CCC[C@]3(C)[C@@]2(O)CC1` are above 100 mg/L and above 100 mg/L.
Regarding `C=C[C@]1(C)C=C2C(=O)[C@@]3(O)OC[C@@]4(CCCC(C)(C)[C@@]43O)[C@@]2(O)[C@H](O)C1` [DIAPORTHINS B], the 50% inhibitory concentration (IC50) in the test with KB was determined as 3.86 mg/L (≈ 10.6 µM); in test [1] it was 6.52 mg/L (≈ 17.9 µM).

The record behind these values is ChEMBL document CHEMBL2016477, “Pimarane diterpenes from the fungus Epicoccum sp. HS-1 associated with Apostichopus japonicus” (Bioorg Med Chem Lett, 2012).
